Measured values taken from patent publication US20160213733A1, “CHARACTERIZATION OF RICE” (Phytoquest Limited, priority 2013, published 2016).

Key:
[1] = test system: digestive enzymes of rat intestinal acetone powder extract; assay: Rat digestive enzyme assays, all activities measured; type: biochemical
Protocol: (§1) Rat intestinal acetone powder extract was purchased from Sigma (11630 lot SLBB6071V) to give results more closely related to digestion. 100 mg of the acetone powder was mixed with 1 ml cold PBS homogenised, sonicated briefly and then spun at 12K rpm for 3 mins.

rodent pancreatic cell = rodent pancreatic cell studies; cited from earlier work
[2] = test system: alpha-glucosidase activity of rat intestinal acetone powder extract; assay: Rat digestive enzyme assay, PNP α-D-glucoside substrate; type: biochemical
Protocol: as §1

[3] = in vivo; cited from earlier work

Row | inhibition of the alpha-glucosidase activity (in words) [2] | SMILES | inhibition of the digestive enzymes / activities measured (in words) [1] | glucose induced-insulin secretion (in words) (rodent pancreatic cell) | effective dose against health risks of excessive intake of fast-digestible carbohydrates [3] | postprandial blood glucose (in words) [3]
1 | – | OC[C@H]1NCC[C@H](O)[C@H]1O [3,4-diepi fagomine, 3,4-diepifagomine] | inhibited none of the activities measured | – | – | –
2 | inhibited | OC[C@H]1NCC[C@@H](O)[C@@H]1O [fagomine, 1,2-dideoxynojirimycin] | – | potentiate glucose induced-insulin secretion | 1 mg/kg | lowers postprandial blood glucose
3 | – | OC[C@H]1NCC[C@H](O)[C@@H]1O [3-epifagomine] | inhibited none of the activities measured | – | – | –
